Source: patent US7261906B2, “Anti-cancer therapy agent of arsenic hexoxide (As4O6) of a natural chemical substance and its pharmaceutical composition” (priority 1998, dated 2007)
Where “and” joins values, the source holds several entries; their conditions need not be identical. Identical values can stand only once. Marks after values point to notes of the source that are not given here.

Experiments:
[1] = Subacute toxicity, oral administration once a day for 4 weeks; type: in vivo, Rats (Sprague Dawley strain); conditions: for ALT / ALB / AST / BUN / CHOL / CREAT / Ca / GLU / TB / TG / TP: female rats
Procedure: The subacute toxicity of oral administration of HD-2 was evaluated according to toxicity assessment criteria described in Article 96-8 of Notice on rood and Drug Safety (Apr. 16, 1994). Rats (Sprague Dawley . strain) were used for experiments, as was the case for acute toxicity experiments. […]
Following items were observed during the period of study. • 1) General symptoms: General symptoms, such as anorchism, salivation, diarrhea, vomiting, polyuria, anuria, and fecal change and the severity of these symptoms were evaluated once a day during the study period. • 2) Food consumption: Twice a week, the amount of consumed food and the remaining amount were checked per cage. • 3) Water consumption: Twice a week, the amount of consumed water and the remaining amount were checked per cage. • 4) Weight: Weights were measured twice a week until the end of the study. • 5) Urinalysis: Urine samples were collected during study period from 5 randomly selected rats per study subgroup and appearance, volume, and colors were recorded. Using urinalysis kits (N-multistix of Amersham), pH, gravity, leukocyte, protein, ketone body, urobilinogen, glucose and blood urea nitrogen were measured. • 6) Eye examination: Ophthalmoscopic examination of 5 randomly selected rats per study subgroup was performed to evaluate the external appearance, cornea, and:fundus of the eye. • 7) Hematological and biochemical analysis: Routine blood test was done to measure red blood cell count, white blood cell count, hemoglobin concentration, number of monocytes and lymphocytes, and blood coagulation time. Biochemical analysis of serum was done to measure the activity of […], aspartate transaminase, alkaline phosphate, and albumin. • 8) Size and weight of organs: For every animal studied, weight and size of major organs were measured relative to body weight. Measured organs included liver, kidney, spleen, heart, adrenal gland, brain, thyroid gland, ovary, and testis. • 9) Pathological examination: Organs were fixed in formalin after measurement of weight and size and fixed tissues were cut into […] slices using microtome (AO Rotate Microtome) and stained with hematoxylin and eosin for microscopic study.

[2] = system: colon26-M3.1 carcinoma cells; assay: Inhibitory effect of intravenously-administered HD-2 on cancer metastasis (lung); type: in vivo, mice
Procedure: (§1) B16-BL6 melanoma cells or colon26-M3.1 carcinoma cells were inoculated into mice and number of metastatic tumor masses appearing in lungs was counted. […] The peak activity was observed a: 1-mg dose with very high anticancer efficacy (86%). […] This indicated oral administration of HD-2 was quite effective for treatment of established cancer.
In this experiment, HD-2 was administered intravenously with dosage less than 500 mg/kg body weight per day.

3T3-fibroblast cells = assay: Cytotoxicity in 3T3-fibroblast cells, time course (XTT method); type: cell-based, murine
Procedure: Cloned tumor cells of P388 leukemia, L1210 leukemia, L5178Y lymphoma, Colon26-M3.1 carcinoma, and B16-BL6 melanoma, from mice, and K562 leukemia, liver carcinoma HEP-G2, Hs578T breast cancer, AN-3-CA adenocarcinoma, DLD colon carcinoma, and HeLa epitheloid carcinoma, from human beings, were cultured in EMM, DMEM, or RMPI-1640 culture media containing 7.5% fetal bovine serum (FBS), as described in ATCC manual. […] Tumor cells in test wells were incubated in 5% CO2 incubator at 37° C. for 2 days.
For further study of the cytotoxicity of each substance on cloned tumor cells, 3T3-fibroblast cells were cultured in test wells as described in experiment 1.

B16-BL6 melanoma cells = assay: Inhibitory effect of orally-administered HD-2 on cancer metastasis (lung); type: in vivo, mice
Excerpt: as §1

[3] = system: N-nitrosodiethylamine (NDEA)-induced tumors in lung and liver; assay: Carcinogen-induced oncogenesis in liver and lung; type: in vivo, mouse (B6C3F1 strain); conditions: for incidence of NDEA-induced hepatic tumor (words): oral HD-2, FIG. 6
Procedure: To examine the inhibitory effect of HD-2 on carcinogen-induced oncogenesis, N-nitrosodiethylamine (NDEA) was injected as a carcinogen into peritoneal cavity of mouse (B6C3F1 strain) at a concentration of 90 mg per kg body weight to induce cancer. At 2, 4, 8, 16, and 32 weeks after carcinogen injection, […] of HD-2 was administered orally and the same amount of distilled water was injected into control group. Forty-two weeks after NDEA treatment, mice were sacrificed to measure the incidence and the size of tumors formed in lung and liver. […] The incidence of NDEA-induced hepatic tumor was above 90%, but following HD-2 administration, the incidence was lowered to 5 to 22%, despite of variation depending on the period of HD-2 administration. Thus HD-2 inhibited carcinogen-induced oncogenesis in liver by 78 to 95. […] In lung, the inhibitory effect of HD-2 on reducing carcinogen-induced oncogenesis was not so dramatic as in liver. However, if HD-2 was given at 4 weeks after NDEA injection, carcinogen-induced oncogenesis was inhibited by 30%.

[4] = 1 μg intravenous administration +1
[5] = 10 μg intravenous administration +1
[6] = 10 μg intravenous administration +7
[7] = 100 μg intravenous administration +1

SMILES: O1[As]2O[As]3O[As]1O[As](O2)O3 [HD-2, arsenic hexoxide (As4O6)]
- ALT ([1]; High 100 mg/kg/day oral): 29.67 μ/l
- ALB ([1]; High 3.0 g/kg/day oral): 3.33 g/dL
- AST ([1]; High 3.0 g/kg/day oral): 77.87* μ/l
- BUN ([1]; High 3.0 g/kg/day oral): 13.13 mg/dL
- CHOL ([1]; High 3.0 g/kg/day oral): 44.33 mg/dL
- CREAT ([1]; High 3.0 g/kg/day oral): 0.47 mg/dL
- Ca ([1]; High 3.0 g/kg/day oral): 8.73 mg/dL
- GLU ([1]; High 3.0 g/kg/day oral): 63.03 mg/dL
- TB ([1]; High 3.0 g/kg/day oral): 0.18 mg/dL
- TG ([1]; High 3.0 g/kg/day oral): 62.33 mg/dL
- TP ([1]; High 3.0 g/kg/day oral): 5.93 g/dL
- ALB ([1]; Low 0.03 g/kg/day oral): 3.60 g/dL
- ALT ([1]; Low 0.03 g/kg/day oral): 27.10 μ/l
- AST ([1]; Low 0.03 g/kg/day oral): 70.10* μ/l
- BUN ([1]; Low 0.03 g/kg/day oral): 11.43 mg/dL
- CHOL ([1]; Low 0.03 g/kg/day oral): 42.33 mg/dL
- CREAT ([1]; Low 0.03 g/kg/day oral): 0.40 mg/dL
- Ca ([1]; Low 0.03 g/kg/day oral): 8.77 mg/dL
- GLU ([1]; Low 0.03 g/kg/day oral): 67.70 mg/dL
- TB ([1]; Low 0.03 g/kg/day oral): 0.14 mg/dL
- TG ([1]; Low 0.03 g/kg/day oral): 50.00 mg/dL
- TP ([1]; Low 0.03 g/kg/day oral): 6.27 g/dL
- ALB ([1]; Medium 0.3 g/kg/day oral): 3.70 g/dL
- ALT ([1]; Medium 0.3 g/kg/day oral): 27.00 μ/l
- AST ([1]; Medium 0.3 g/kg/day oral): 87.53 μ/l
- BUN ([1]; Medium 0.3 g/kg/day oral): 13.18 mg/dL
- CHOL ([1]; Medium 0.3 g/kg/day oral): 40.50 mg/dL
- CREAT ([1]; Medium 0.3 g/kg/day oral): 0.53 mg/dL
- Ca ([1]; Medium 0.3 g/kg/day oral): 8.95 mg/dL
- GLU ([1]; Medium 0.3 g/kg/day oral): 70.00 mg/dL
- TB ([1]; Medium 0.3 g/kg/day oral): 0.16 mg/dL
- TG ([1]; Medium 0.3 g/kg/day oral): 56.25 mg/dL
- TP ([1]; Medium 0.3 g/kg/day oral): 6.53 g/dL
- kidney pathology: hemosiderin in and atrophy of proximal tubular epithelium ([1]; high-dose group (100 mg/kg body weight), 4 weeks): observed to a slight degree
- kidney pathology ([1]; medium-dose group, 4 weeks): no such pathology was observed
- Hematological and biochemical study vs control groups ([1]; oral, once a day for 4 weeks): did not reveal any significant difference
- clinical symptoms incl. changes in weight and consumption of food and water ([1]; oral, once a day for 4 weeks): no specific clinical symptom
- urinalysis and eye examination ([1]; oral, once a day for 4 weeks): any significant abnormality was not observed
- fatal cases ([1]; oral, once a day for 4 weeks, 1, 10, 100 mg per kg body weight): fatal cases were not observed
- inhibitory rate [2, 4]: 66.5%
- number of metastatic mass, mean ± SD [2, 4]: 52 ± 28
- inhibitory rate [2, 5]: 92.9%
- number of metastatic mass, mean ± SD [2, 5]: 11 ± 19
- inhibitory rate [2, 6]: 67.5%
- number of metastatic mass, mean ± SD [2, 6]: 50 ± 11
- inhibitory rate [2, 7]: 90.3%
- number of metastatic mass, mean ± SD [2, 7]: 15 ± 15
- anti-metastatic efficacy ([2]; 10- to 100-μg intravenous): above 90%
- morphological observation of cells (3T3-fibroblast cells; 3T3, 34 hours of treatment): complete necrosis of tumor cells
- cytotoxicity, times as high as that of cisplatin (3T3-fibroblast cells; 3T3, 48 hours after administration): about 270 times
- cytotoxic effect over time (FIG. 3) (3T3-fibroblast cells; 3T3, time course after the addition, XTT): demonstrated cytotoxic effect starting from 4 hours
- inhibitory rate (B16-BL6 melanoma cells; 0.1 mg oral administration +1): 38.5%
- number of metastatic masses, mean ±SD (B16-BL6 melanoma cells; 0.1 mg oral administration +1): 75 ± 28
- inhibitory rate (B16-BL6 melanoma cells; 0.1 mg oral administration +7): 41.4%
- number of metastatic masses, mean ±SD (B16-BL6 melanoma cells; 0.1 mg oral administration +7): 95 ± 23
- inhibitory rate (B16-BL6 melanoma cells; 1 mg oral administration +1): 86% and 86.1%
- number of metastatic masses, mean ±SD (B16-BL6 melanoma cells; 1 mg oral administration +1): 17 ± 9
- inhibitory rate (B16-BL6 melanoma cells; 1 mg oral administration +7): 70% and 70.4%
- number of metastatic masses, mean ±SD (B16-BL6 melanoma cells; 1 mg oral administration +7): 48 ± 19
- inhibitory rate (B16-BL6 melanoma cells; 10 mg oral administration +1): 63.1%
- inhibitory rate (B16-BL6 melanoma cells; 10 mg oral administration +7): 66.1%
- number of metastatic masses, mean ±SD (B16-BL6 melanoma cells; 10 mg oral administration +7): 55 ± 13
- number of metastatic masses, mean ±SD (B16-BL6 melanoma cells; 10 mg oral administration +1 day after inoculation): 45 ± 25
- anti-metastatic effect compared to the control group (B16-BL6 melanoma cells; oral administration, 0.1 to 10 mg): significant anti-metastatic effect
- incidence of NDEA-induced lung cancer ([3]; FIG. 7): decreases the incidence of lung cancer
- inhibition of carcinogen-induced oncogenesis in lung ([3]; HD-2 given at 4 weeks after NDEA injection): 30%
- number of tumor masses in lung ([3]; HD-2 group, FIG. 7): about 2
- spontaneous cancers of lung ([3]; oral HD-2): completely suppressed
- spontaneous hepatoma ([3]; oral HD-2): inhibited spontaneous hepatoma completely
- incidence of NDEA-induced hepatic tumor (words) [3]: effectively inhibited
- incidence of NDEA-induced hepatic tumor (words) ([3]; listed as As4O6): decreases hepatoma incidence
